Columns and labels:
lactic acid bacteria = test: Growth in the presence of butyrate (data not shown); assay type: cell-based; conditions: 10 mM butyrate
Bifidobacteria = test: as above; assay type: cell-based; conditions: 10 mM butyrate

SMILES: CCCC(=O)O [butyrate]
- growth inhibition (lactic acid bacteria): not inhibited
- growth inhibition (Bifidobacteria): not inhibited
